pIC50: −log10 of the molar value.
Each compound was assayed against T1, CCR1 (Homo sapiens, UniProt P32246) (assay: Calcium flux in response to MIP-1 alpha in CCR1-transfected cells, Method B (Calcium 4 dye, […] FDSS6000)). Details: cells stably expressing recombinant CCR1 and G-alpha-16; MIP-1 alpha at EC80; 30 minutes at 37 C then 30 minutes at room temperature.
T1 sequence (P32246 1-355): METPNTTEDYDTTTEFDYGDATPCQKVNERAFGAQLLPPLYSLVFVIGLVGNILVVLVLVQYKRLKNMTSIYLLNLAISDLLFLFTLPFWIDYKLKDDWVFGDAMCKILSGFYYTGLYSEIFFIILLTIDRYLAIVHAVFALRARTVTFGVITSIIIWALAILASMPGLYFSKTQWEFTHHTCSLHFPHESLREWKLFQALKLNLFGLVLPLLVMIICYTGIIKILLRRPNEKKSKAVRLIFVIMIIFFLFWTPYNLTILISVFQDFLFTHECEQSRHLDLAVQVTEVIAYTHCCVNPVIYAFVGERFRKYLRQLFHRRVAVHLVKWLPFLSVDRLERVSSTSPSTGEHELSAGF
Assay type: cell-based
Method: (§1) Compounds are assessed for the ability to block the interaction of CCR1 and its ligand in a functional cellular assay measuring calcium flux in response to MIP-1α in CCR1-transfected cells.
Method B: Non-adherent cells purchased from Chemicon Corporation (HTS005C), stably expressing recombinant CCR1 and G-alpha-16 are grown in RPMI 1640 medium (Mediatech 10-080-CM) supplemented with 10% FBS, 0.4 mg/mL Geneticin and penicillin/streptomycin. On the day of the assay, the cells are loaded with Calcium 4 dye (Molecular Devices R7448) with Probenecid (Invitrogen P346400) at 8E5 cells/mL for 1 hour at room temperature. After 1 hour, they are seeded in a 384-well tissue culture-treated plate at a density of 20,000 cells/well. Appropriately diluted test compound is added to the well to achieve a top concentration of 3,000 nM (diluted 4-fold with 10 doses total). The final concentration of DMSO is 1%. The buffer is HBSS (Invitrogen 14025) with 20 mM HEPES at pH 7.4. The cells incubate 30 minutes at 37 C and then 30 minutes at room temperature. The plates are transferred to the […] FDSS6000 where MIP-1 alpha in 1% BSA is added at the EC80 final concentration. All plates must be read within 4 hours of the start of dye-loading. Wells +/−MIP-1alpha containing diluted DMSO instead of compound serve as the controls. Data are analyzed using Activity Base software.
CC[C@H](NC(=O)c1cc(Br)cc2c1cnn2-c1ccc(F)cc1)c1ccc(S(C)(=O)=O)nc1 [6-Bromo-1-(4-fluoro-phenyl)-1H-indazole-4-carboxylic acid [(S)-1-(6-methanesulfonyl-pyridin-3-yl)-propyl]-amide] gave a pIC50 of 7.64. In the case of CC[C@H](NC(=O)c1cccc2c1cnn2-c1ccc(F)cc1)c1ccc(S(C)(=O)=O)nc1 [1-(4-Fluoro-phenyl)-1H-indazole-4-carboxylic acid [(S)-1-(6-methanesulfonyl-pyridin-3-yl)-propyl]-amide], the pIC50 was 8.70.

What follows are compounds tested against T1, CCR1 (assay: Calcium flux in response to MIP-1 alpha in CCR1-transfected cells, Method A (Fluo-4 NW, FLIPR TETRA)). Details: cells stably expressing recombinant CCR1 and G-alpha-16; MIP-1 alpha at EC80; 1 hour incubation at room temperature.
Assay type: cell-based
Method: as §1
On the day of the assay, the cells are transferred to a beaker and dye-loaded in bulk using a Fluo-4 NW Calcium Assay Kit with probenecid (Invitrogen F36205) at 0.8E6 cells/mL for 1 hour at room temperature. After 1 hour, they are seeded in a 384-well tissue culture-treated plate at a density of 20,000 cells/well. Appropriately diluted test compound is added to the well to achieve a top concentration of 3,000 nM (diluted 3-fold with 10 doses total). The final concentration of DMSO is 1%. […] The cells are allowed to incubate 1 hour in the dark at room temperature. The plates are transferred to the FLIPR TETRA where MIP-1 alpha in 1% BSA is added at the EC80 final concentration. Wells +/−MIP-1 alpha containing diluted DMSO instead of compound serve as the controls.
N#Cc1cc(C(=O)NCc2ccc(Br)nc2)c2cnn(-c3ccc(F)cc3)c2c1 [6-Cyano-1-(4-fluoro-phenyl)-1H-indazole-4-carboxylic acid (6-bromo-pyridin-3-ylmethyl)-amide] gave a pIC50 of 7.68. Work on COCCNS(=O)(=O)c1ccc(CNC(=O)c2cccc3c2cnn3-c2ccc(F)cc2)cc1 [1-(4-Fluoro-phenyl)-1H-indazole-4-carboxylic acid 4-(2-methoxy-ethylsulfamoyl)-benzylamide] yielded a pIC50 of 8.00. Work on COc1cc(CNC(=O)c2cccc3c2cnn3-c2ccc(F)cc2)ccn1 [1-(4-Fluoro-phenyl)-1H-indazole-4-carboxylic acid (2-methoxy-pyridin-4-ylmethyl)-amide] yielded a pIC50 of 7.66. Work on CNS(=O)(=O)c1ccc(CNC(=O)c2cc(S(C)(=O)=O)cc3c2cnn3-c2ccc(F)cc2)cc1 [1-(4-Fluoro-phenyl)-6-methanesulfonyl-1H-indazole-4-carboxylic acid 4-methylsulfamoyl-benzylamide] yielded a pIC50 of 7.55. Compound CN1CCC(NS(=O)(=O)c2ccc(CNC(=O)c3cc(C#N)cc4c3cnn4-c3ccc(F)cc3)cc2)CC1 [6-Cyano-1-(4-fluoro-phenyl)-1H-indazole-4-carboxylic acid 4-(1-methyl-piperidin-4-ylsulfamoyl)-benzylamide] has a pIC50 of 7.74. CC(NC(=O)c1cccc2c1cnn2-c1ccc(F)cc1)c1cccc(C(F)(F)F)c1 (stereo not drawn) [1-(4-Fluoro-phenyl)-1H-indazole-4-carboxylic acid [1-(3-trifluoromethyl-phenyl)-ethyl]-amide] showed a pIC50 of 7.85. O=C(NCc1ccc(S(=O)(=O)NCCO)cc1)c1cccc2c1cnn2-c1ccc(F)cc1 [1-(4-Fluoro-phenyl)-1H-indazole-4-carboxylic acid 4-(2-hydroxy-ethylsulfamoyl)-benzylamide] was tested, and the pIC50 was 8.04. CS(=O)(=O)c1ccc(CNC(=O)c2cccc3c2cnn3-c2ccc(F)cc2)c(Cl)c1 [1-(4-Fluoro-phenyl)-1H-indazole-4-carboxylic acid 2-chloro-4-methanesulfonyl-benzylamide] gave a pIC50 of 8.17. Work on CS(=O)(=O)c1cccc(CNC(=O)c2cc(C#N)cc3c2cnn3-c2ccc(F)cc2)c1 [6-Cyano-1-(4-fluoro-phenyl)-1H-indazole-4-carboxylic acid 3-methanesulfonyl-benzylamide] yielded a pIC50 of 8.70. For CNS(=O)(=O)c1ccc(CNC(=O)c2cccc3c2cnn3-c2ccc(F)cc2)c(Cl)c1 [1-(4-Fluoro-phenyl)-1H-indazole-4-carboxylic acid 2-chloro-4-methylsulfamoyl-benzylamide], the pIC50 was 8.40. Work on CN1CCN(S(=O)(=O)c2ccc(CNC(=O)c3cc(C#N)cc4c3cnn4-c3ccc(F)cc3)cc2)CC1 [6-Cyano-1-(4-fluoro-phenyl)-1H-indazole-4-carboxylic acid 4-(4-methyl-piperazine-1-sulfonyl)-benzylamide] yielded a pIC50 of 8.82. CC(C)NS(=O)(=O)Cc1ccc(CNC(=O)c2cccc3c2cnn3-c2ccc(F)cc2)cc1 [1-(4-Fluoro-phenyl)-1H-indazole-4-carboxylic acid 4-(isopropylsulfamoyl-methyl)-benzylamide] gave a pIC50 of 7.26. With CS(=O)(=O)c1ccc(CNC(=O)c2cc(C#N)cc3c2cnn3-c2ccc(F)cc2)cn1 [6-Cyano-1-(4-fluoro-phenyl)-1H-indazole-4-carboxylic acid (6-methanesulfonyl-pyridin-3-ylmethyl)-amide] the pIC50 was 8.15. With CNS(=O)(=O)c1ccc(CNC(=O)c2cc(C#N)cc3c2cnn3-c2ccc(F)cc2)cc1 [6-Cyano-1-(4-fluoro-phenyl)-1H-indazole-4-carboxylic acid 4-methylsulfamoyl-benzylamide] the pIC50 was 9.52. In the case of COc1cc(CNC(=O)c2cccc3c2cnn3-c2ccc(F)cc2)cc(OC)c1 [1-(4-Fluoro-phenyl)-1H-indazole-4-carboxylic acid 3,5-dimethoxy-benzylamide], the pIC50 was 7.60. O=C(NCc1ccc(S(=O)(=O)NC2CCOCC2)cc1)c1cccc2c1cnn2-c1ccc(F)cc1 [1-(4-Fluoro-phenyl)-1H-indazole-4-carboxylic acid 4-(tetrahydro-pyran-4-ylsulfamoyl)-benzylamide] was tested, and the pIC50 was 7.70. N#Cc1cc(CNC(=O)c2cccc3c2cnn3-c2ccc(F)cc2)ccn1 [1-(4-Fluoro-phenyl)-1H-indazole-4-carboxylic acid (2-cyano-pyridin-4-ylmethyl)-amide] gave a pIC50 of 6.92. CN(C)C1CCN(S(=O)(=O)c2ccc(CNC(=O)c3cccc4c3cnn4-c3ccc(F)cc3)cc2)CC1 [1-(4-Fluoro-phenyl)-1H-indazole-4-carboxylic acid 4-(4-dimethylamino-piperidine-1-sulfonyl)-benzylamide] gave a pIC50 of 7.64. In the case of CNS(=O)(=O)c1ccc(CNC(=O)c2cc(C)cc3c2cnn3-c2ccc(F)cc2)cc1 [1-(4-Fluoro-phenyl)-6-methyl-1H-indazole-4-carboxylic acid 4-methylsulfamoyl-benzylamide], the pIC50 was 7.70. With CCOC(=O)COc1cc(CNC(=O)c2cccc3c2cnn3-c2ccc(F)cc2)ccn1 [[4-({[1-(4-Fluoro-phenyl)-1H-indazole-4-carbonyl]-amino}-methyl)-pyridin-2-yloxy]-acetic acid ethyl ester] the pIC50 was 6.85. CN1CCC(N(C)S(=O)(=O)c2ccc(CNC(=O)c3cc(C#N)cc4c3cnn4-c3ccc(F)cc3)cc2)CC1 [6-Cyano-1-(4-fluoro-phenyl)-1H-indazole-4-carboxylic acid 4-[methyl-(1-methyl-piperidin-4-yl)-sulfamoyl]-benzylamide] showed a pIC50 of 8.29. CS(=O)(=O)Nc1ccc(CNC(=O)c2cc(C#N)cc3c2cnn3-c2ccc(F)cc2)cn1 [6-Cyano-1-(4-fluoro-phenyl)-1H-indazole-4-carboxylic acid (6-methanesulfonylamino-pyridin-3-ylmethyl)-amide] gave a pIC50 of 8.36. Compound CC(=O)NCCNS(=O)(=O)c1ccc(CNC(=O)c2cccc3c2cnn3-c2ccc(F)cc2)cc1 [1-(4-Fluoro-phenyl)-1H-indazole-4-carboxylic acid 4-(2-acetylamino-ethylsulfamoyl)-benzylamide] has a pIC50 of 6.96. In the case of CCC[C@H](NC(=O)c1cccc2c1cnn2-c1ccc(F)cc1)c1cccc(Br)c1 [1-(4-Fluoro-phenyl)-1H-indazole-4-carboxylic acid [(S)-1-(3-bromo-phenyl)-butyl]-amide], the pIC50 was 7.72. CNS(=O)(=O)c1ccc(CNC(=O)c2cccc3c2cnn3-c2ccc(F)cc2)c(F)c1 [1-(4-Fluoro-phenyl)-1H-indazole-4-carboxylic acid 2-fluoro-4-methylsulfamoyl-benzylamide] was tested, and the pIC50 was 8.27. For O=C(NCc1cccc(Br)c1)c1cccc2c1cnn2-c1ccc(F)cc1 [1-(4-Fluoro-phenyl)-1H-indazole-4-carboxylic acid 3-bromo-benzylamide], the pIC50 was 7.12. Compound CN1CCC(N(C)S(=O)(=O)c2ccc(CNC(=O)c3cccc4c3cnn4-c3ccc(F)cc3)cc2)CC1 [1-(4-Fluoro-phenyl)-1H-indazole-4-carboxylic acid 4-[methyl-(1-methyl-piperidin-4-yl)-sulfamoyl]-benzylamide] has a pIC50 of 7.36. Work on O=C(NCc1ccc(S(=O)(=O)N2CCOCC2)cc1)c1cccc2c1cnn2-c1ccc(F)cc1 [1-(4-Fluoro-phenyl)-1H-indazole-4-carboxylic acid 4-(morpholine-4-sulfonyl)-benzylamide] yielded a pIC50 of 7.85.
